From publication PMC9558304, “Biomimetic Mineralization of Iron-Fumarate Nanoparticles for Protective Encapsulation and Intracellular Delivery of Proteins” (Chemistry of Materials, 2022)

Molecular target: T1, horseradish peroxidase (HRP) (Armoracia rusticana, UniProt P00433)
T1 construct: gene PRXC1A
T1 sequence (P00433 31-338): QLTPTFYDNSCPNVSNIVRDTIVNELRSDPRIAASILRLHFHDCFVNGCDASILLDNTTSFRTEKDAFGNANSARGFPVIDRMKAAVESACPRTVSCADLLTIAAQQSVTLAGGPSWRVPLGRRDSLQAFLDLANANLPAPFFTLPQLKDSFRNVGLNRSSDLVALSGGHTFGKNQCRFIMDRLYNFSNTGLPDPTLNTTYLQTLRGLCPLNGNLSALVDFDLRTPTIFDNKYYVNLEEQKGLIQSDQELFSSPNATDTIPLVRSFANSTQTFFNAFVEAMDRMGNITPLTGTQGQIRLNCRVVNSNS
Assay: fluorescence plate reader ([…] nm), Michaelis-Menten fit
Format: biochemical
Conditions: free HRP added to degraded Fe-fum NPs (citrate buffer); 2500 μM H2O2; Amplex UltraRed 0-100 μM

How did the Km turn out when Amplex UltraRed was run?
Its Km is 182 ± 73 µM.
